{
  "source": "paper PMC5869712",
  "about": "(Scientific Reports, 2018)",
  "key": {"JAK3": {"biological_target": "T1, JAK3 (Homo sapiens, UniProt P52333)", "T1 construct": "ChemPartner (contract assay service)", "T1 sequence (P52333 1-1124)": "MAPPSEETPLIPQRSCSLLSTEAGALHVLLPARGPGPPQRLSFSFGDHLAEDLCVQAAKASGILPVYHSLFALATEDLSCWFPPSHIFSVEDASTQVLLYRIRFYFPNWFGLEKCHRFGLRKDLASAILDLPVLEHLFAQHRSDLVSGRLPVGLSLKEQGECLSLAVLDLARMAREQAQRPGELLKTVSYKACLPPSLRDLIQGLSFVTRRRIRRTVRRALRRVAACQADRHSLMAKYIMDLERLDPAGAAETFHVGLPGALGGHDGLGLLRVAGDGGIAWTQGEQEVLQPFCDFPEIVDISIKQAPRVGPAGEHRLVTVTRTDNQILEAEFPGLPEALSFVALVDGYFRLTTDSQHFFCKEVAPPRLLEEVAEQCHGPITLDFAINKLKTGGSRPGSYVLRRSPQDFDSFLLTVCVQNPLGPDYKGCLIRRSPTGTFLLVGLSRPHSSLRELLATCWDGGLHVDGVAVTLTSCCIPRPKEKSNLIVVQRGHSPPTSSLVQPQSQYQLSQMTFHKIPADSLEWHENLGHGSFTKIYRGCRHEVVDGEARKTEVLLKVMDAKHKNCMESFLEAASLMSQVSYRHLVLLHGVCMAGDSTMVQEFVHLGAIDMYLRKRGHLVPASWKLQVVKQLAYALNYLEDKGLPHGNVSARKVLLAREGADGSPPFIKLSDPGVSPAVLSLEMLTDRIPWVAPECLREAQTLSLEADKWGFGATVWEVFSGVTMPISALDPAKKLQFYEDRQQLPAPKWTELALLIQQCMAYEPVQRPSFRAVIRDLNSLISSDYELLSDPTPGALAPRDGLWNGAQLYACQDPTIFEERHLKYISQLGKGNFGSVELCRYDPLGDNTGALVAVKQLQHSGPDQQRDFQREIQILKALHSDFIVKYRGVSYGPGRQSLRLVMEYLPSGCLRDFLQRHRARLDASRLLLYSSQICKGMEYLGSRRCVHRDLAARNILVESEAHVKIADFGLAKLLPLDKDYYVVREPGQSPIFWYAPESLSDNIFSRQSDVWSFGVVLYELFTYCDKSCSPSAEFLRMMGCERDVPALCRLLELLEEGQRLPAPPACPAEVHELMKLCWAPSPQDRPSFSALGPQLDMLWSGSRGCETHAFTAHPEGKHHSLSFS", "assay": "Cys-containing kinase family panel (EurofinsCerep)", "type": "biochemical"}, "ERBB4": {"biological_target": "T2, ERBB4 (Homo sapiens, UniProt Q15303)", "T2 construct": "EurofinsCerep (contract assay service)", "assay": "Cys-containing kinase family panel (EurofinsCerep)", "type": "biochemical"}, "GRK5": {"biological_target": "T3, GRK5 (Homo sapiens, UniProt P34947)", "T3 construct": "purchased Eurofins KinaseProfiler (Eurofins Pharma Discovery Services UK, Dundee); JAK3 also ChemPartner", "T3 sequence (P34947 whole entry)": "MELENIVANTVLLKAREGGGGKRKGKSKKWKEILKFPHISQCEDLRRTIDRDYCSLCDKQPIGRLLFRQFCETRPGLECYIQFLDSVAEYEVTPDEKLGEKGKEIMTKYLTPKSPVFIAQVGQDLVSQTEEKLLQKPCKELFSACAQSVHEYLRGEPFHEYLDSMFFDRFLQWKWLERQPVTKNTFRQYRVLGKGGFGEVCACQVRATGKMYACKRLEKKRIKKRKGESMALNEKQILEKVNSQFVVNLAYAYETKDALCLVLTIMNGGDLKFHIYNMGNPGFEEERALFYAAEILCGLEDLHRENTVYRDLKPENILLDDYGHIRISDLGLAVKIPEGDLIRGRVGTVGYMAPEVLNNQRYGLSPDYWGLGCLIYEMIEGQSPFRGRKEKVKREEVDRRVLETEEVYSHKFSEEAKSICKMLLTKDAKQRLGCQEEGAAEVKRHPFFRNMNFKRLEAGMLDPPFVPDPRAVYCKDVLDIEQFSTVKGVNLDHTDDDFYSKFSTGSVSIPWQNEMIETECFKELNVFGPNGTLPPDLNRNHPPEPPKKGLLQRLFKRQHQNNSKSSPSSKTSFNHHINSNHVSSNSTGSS", "assay": "Eurofins Kinase Profiler panel", "type": "biochemical", "settings": "read-out: % inhibition (1μM), DMSO control=100%, lower=stronger"}, "ACK1": {"biological_target": "T4, ACK1 (Homo sapiens, UniProt Q07912)", "T4 construct": "purchased Eurofins KinaseProfiler (Eurofins Pharma Discovery Services UK, Dundee); JAK3 also ChemPartner", "assay": "Eurofins Kinase Profiler panel", "type": "biochemical", "settings": "read-out: % inhibition (1μM), DMSO control=100%, lower=stronger"}, "GSK3β": {"biological_target": "T5, GSK3β (Homo sapiens, UniProt P49841)", "T5 construct": "purchased Eurofins KinaseProfiler (Eurofins Pharma Discovery Services UK, Dundee); JAK3 also ChemPartner", "T5 sequence (P49841 whole entry)": "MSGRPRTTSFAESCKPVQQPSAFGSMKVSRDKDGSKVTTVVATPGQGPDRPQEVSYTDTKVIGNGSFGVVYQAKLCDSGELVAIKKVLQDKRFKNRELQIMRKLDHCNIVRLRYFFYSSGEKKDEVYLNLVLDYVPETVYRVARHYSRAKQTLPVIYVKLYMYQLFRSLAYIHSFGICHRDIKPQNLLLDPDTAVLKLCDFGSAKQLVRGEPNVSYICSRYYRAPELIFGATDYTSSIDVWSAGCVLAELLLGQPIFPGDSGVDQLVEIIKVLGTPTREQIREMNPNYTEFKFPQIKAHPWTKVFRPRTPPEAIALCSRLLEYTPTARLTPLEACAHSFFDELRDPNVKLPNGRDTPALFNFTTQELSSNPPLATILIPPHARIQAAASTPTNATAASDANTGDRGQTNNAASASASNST", "assay": "Eurofins Kinase Profiler panel", "type": "biochemical", "settings": "read-out: % inhibition (1μM), DMSO control=100%, lower=stronger"}, "Aurora-B": {"biological_target": "T6, Aurora-B (Homo sapiens, UniProt Q96GD4)", "T6 construct": "Eurofins Pharma Discovery Services UK Limited (Kinase Profiler service)", "T6 sequence (Q96GD4 whole entry)": "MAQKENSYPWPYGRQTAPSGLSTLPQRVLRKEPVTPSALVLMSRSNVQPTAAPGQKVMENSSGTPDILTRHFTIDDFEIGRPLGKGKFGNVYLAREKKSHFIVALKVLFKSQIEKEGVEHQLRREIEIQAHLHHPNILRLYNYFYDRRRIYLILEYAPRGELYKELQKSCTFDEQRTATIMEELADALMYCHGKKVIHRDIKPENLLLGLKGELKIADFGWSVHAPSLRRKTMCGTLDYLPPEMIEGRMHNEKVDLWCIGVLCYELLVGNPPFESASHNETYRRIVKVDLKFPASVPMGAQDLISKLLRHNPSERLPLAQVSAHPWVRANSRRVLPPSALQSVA", "assay": "Eurofins Kinase Profiler panel", "type": "biochemical"}, "IKKε": {"biological_target": "T7, IKKε (Homo sapiens, UniProt Q14164)", "T7 construct": "purchased Eurofins KinaseProfiler (Eurofins Pharma Discovery Services UK, Dundee); JAK3 also ChemPartner", "assay": "Eurofins Kinase Profiler panel", "type": "biochemical", "settings": "read-out: % inhibition (1μM), DMSO control=100%, lower=stronger"}, "JNK2α2": {"biological_target": "T8, JNK2α2 (Homo sapiens, UniProt P45984)", "T8 construct": "purchased Eurofins KinaseProfiler (Eurofins Pharma Discovery Services UK, Dundee); JAK3 also ChemPartner", "assay": "Eurofins Kinase Profiler panel", "type": "biochemical", "settings": "read-out: % inhibition (1μM), DMSO control=100%, lower=stronger"}, "Lck": {"biological_target": "T9, Lck (Homo sapiens, UniProt P06239)", "T9 construct": "purchased Eurofins KinaseProfiler (Eurofins Pharma Discovery Services UK, Dundee); JAK3 also ChemPartner", "T9 sequence (P06239 whole entry)": "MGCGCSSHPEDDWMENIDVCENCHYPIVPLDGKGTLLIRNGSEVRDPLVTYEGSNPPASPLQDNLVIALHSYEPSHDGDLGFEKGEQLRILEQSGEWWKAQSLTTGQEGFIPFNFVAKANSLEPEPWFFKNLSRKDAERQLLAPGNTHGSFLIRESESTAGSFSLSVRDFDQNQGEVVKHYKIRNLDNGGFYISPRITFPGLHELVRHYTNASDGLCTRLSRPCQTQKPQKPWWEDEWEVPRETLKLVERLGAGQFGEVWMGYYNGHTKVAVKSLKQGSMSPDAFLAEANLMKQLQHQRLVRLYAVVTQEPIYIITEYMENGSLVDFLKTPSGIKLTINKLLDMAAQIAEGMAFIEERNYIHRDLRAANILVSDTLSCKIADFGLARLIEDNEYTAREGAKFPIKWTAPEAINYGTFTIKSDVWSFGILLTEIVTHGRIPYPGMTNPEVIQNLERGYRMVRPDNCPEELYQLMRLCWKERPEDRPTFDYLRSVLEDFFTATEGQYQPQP", "assay": "Eurofins Kinase Profiler panel", "type": "biochemical", "settings": "read-out: % inhibition (1μM), DMSO control=100%, lower=stronger"}, "DYRK1A": {"biological_target": "T10, DYRK1A (Homo sapiens, UniProt Q13627)", "T10 construct": "purchased Eurofins KinaseProfiler (Eurofins Pharma Discovery Services UK, Dundee); JAK3 also ChemPartner", "assay": "Eurofins Kinase Profiler panel", "type": "biochemical", "settings": "read-out: % inhibition (1μM), DMSO control=100%, lower=stronger", "description": "(§1) The assay protocol guides are commercially available from ChemPartner."}, "MSK1": {"biological_target": "T11, MSK1 (Homo sapiens, UniProt O75582)", "T11 construct": "purchased Eurofins Pharma Discovery Services UK Limited (Kinase Profiler screening platform)", "assay": "Eurofins Kinase Profiler panel", "type": "biochemical", "settings": "read-out: % inhibition (1μM), DMSO control=100%, lower=stronger", "description": "as §1"}, "NEK2": {"biological_target": "T12, NEK2 (Homo sapiens, UniProt P51955)", "T12 construct": "purchased Eurofins Pharma Discovery Services UK Limited (Kinase Profiler screening platform)", "assay": "Eurofins Kinase Profiler panel", "type": "biochemical", "settings": "read-out: % inhibition (1μM), DMSO control=100%, lower=stronger", "description": "as §1"}, "PKBα": {"biological_target": "T13, PKBα (Homo sapiens, UniProt P31749)", "T13 construct": "purchased Eurofins KinaseProfiler (Eurofins Pharma Discovery Services UK, Dundee); JAK3 also ChemPartner", "T13 sequence (P31749 whole entry)": "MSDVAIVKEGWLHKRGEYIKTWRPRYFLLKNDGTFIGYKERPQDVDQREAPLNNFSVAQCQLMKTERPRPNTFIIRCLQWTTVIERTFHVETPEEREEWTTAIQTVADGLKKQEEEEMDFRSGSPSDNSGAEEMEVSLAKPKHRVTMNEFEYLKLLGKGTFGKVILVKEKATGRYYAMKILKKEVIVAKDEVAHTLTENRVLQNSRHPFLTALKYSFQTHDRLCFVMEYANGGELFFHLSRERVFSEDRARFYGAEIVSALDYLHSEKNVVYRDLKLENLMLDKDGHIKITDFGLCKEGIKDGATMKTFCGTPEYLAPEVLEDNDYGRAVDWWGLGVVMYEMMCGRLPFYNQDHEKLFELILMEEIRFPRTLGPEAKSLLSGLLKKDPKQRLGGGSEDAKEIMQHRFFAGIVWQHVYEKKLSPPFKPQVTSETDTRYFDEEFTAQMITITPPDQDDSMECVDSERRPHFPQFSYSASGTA", "assay": "Eurofins Kinase Profiler panel", "type": "biochemical", "settings": "read-out: % inhibition (1μM), DMSO control=100%, lower=stronger", "description": "as §1"}, "PRK2": {"biological_target": "T14, PRK2 (Homo sapiens, UniProt Q16513)", "T14 construct": "purchased Eurofins KinaseProfiler (Eurofins Pharma Discovery Services UK, Dundee); JAK3 also ChemPartner", "assay": "Eurofins Kinase Profiler panel", "type": "biochemical", "settings": "read-out: % inhibition (1μM), DMSO control=100%, lower=stronger", "description": "as §1"}, "Plk3": {"biological_target": "T15, Plk3 (Homo sapiens, UniProt Q9H4B4)", "T15 construct": "purchased Eurofins KinaseProfiler (Eurofins Pharma Discovery Services UK, Dundee); JAK3 also ChemPartner", "T15 sequence (Q9H4B4 whole entry)": "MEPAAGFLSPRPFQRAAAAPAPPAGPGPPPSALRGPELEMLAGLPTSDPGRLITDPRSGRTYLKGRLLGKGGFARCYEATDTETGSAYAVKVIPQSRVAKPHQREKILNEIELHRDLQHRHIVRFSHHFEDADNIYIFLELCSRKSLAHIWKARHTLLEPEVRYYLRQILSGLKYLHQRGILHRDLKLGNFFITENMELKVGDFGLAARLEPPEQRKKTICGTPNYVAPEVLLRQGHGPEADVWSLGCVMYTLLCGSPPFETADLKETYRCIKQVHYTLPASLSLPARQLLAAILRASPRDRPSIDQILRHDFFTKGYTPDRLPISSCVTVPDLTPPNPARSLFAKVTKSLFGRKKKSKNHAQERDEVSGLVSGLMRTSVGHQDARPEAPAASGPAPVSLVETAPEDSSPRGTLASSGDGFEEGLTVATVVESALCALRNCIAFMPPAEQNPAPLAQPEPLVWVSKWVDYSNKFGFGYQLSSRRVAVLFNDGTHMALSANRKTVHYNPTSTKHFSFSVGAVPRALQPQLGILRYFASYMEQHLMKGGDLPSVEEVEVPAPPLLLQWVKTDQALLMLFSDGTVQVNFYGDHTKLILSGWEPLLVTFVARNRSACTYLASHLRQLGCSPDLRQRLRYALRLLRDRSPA", "assay": "Eurofins Kinase Profiler panel", "type": "biochemical", "settings": "read-out: % inhibition (1μM), DMSO control=100%, lower=stronger", "description": "as §1"}, "SAPK2a": {"biological_target": "T16, SAPK2a (Homo sapiens, UniProt Q16539)", "T16 construct": "purchased Eurofins KinaseProfiler (Eurofins Pharma Discovery Services UK, Dundee); JAK3 also ChemPartner", "assay": "Eurofins Kinase Profiler panel", "type": "biochemical", "settings": "read-out: % inhibition (1μM), DMSO control=100%, lower=stronger", "description": "as §1"}, "STK33": {"biological_target": "T17, STK33 (Homo sapiens, UniProt Q9BYT3)", "T17 construct": "purchased Eurofins KinaseProfiler (Eurofins Pharma Discovery Services UK, Dundee); JAK3 also ChemPartner", "T17 sequence (Q9BYT3 whole entry)": "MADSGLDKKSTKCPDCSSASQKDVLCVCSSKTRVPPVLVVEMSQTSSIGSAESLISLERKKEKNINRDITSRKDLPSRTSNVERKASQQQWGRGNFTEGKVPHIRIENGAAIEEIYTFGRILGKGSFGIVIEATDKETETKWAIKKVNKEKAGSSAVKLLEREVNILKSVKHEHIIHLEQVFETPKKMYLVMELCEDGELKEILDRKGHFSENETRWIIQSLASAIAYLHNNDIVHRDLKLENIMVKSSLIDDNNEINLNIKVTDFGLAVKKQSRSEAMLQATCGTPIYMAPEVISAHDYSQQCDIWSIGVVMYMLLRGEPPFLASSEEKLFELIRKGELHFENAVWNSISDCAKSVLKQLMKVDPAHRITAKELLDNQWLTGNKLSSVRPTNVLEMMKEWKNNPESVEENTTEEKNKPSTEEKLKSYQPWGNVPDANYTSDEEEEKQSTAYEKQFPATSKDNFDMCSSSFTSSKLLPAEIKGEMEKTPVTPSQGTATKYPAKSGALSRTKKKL", "assay": "Eurofins Kinase Profiler panel", "type": "biochemical", "settings": "read-out: % inhibition (1μM), DMSO control=100%, lower=stronger", "description": "as §1"}, "MKK6": {"biological_target": "T18, MKK6 (Homo sapiens, UniProt P52564)", "T18 construct": "Eurofins Pharma Discovery Services UK Limited (Kinase Profiler service)", "T18 sequence (P52564 whole entry)": "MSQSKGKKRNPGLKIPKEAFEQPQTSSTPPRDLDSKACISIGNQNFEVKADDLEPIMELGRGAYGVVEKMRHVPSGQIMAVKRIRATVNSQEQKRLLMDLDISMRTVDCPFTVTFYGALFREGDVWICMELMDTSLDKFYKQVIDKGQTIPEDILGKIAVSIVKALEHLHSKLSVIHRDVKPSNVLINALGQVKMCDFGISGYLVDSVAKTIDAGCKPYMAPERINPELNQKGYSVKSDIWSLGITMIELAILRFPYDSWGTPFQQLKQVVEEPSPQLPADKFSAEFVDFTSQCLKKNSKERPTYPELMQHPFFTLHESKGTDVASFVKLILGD", "assay": "Eurofins Kinase Profiler panel", "type": "biochemical", "settings": "read-out: % inhibition (1μM), DMSO control=100%, lower=stronger"}, "FAK": {"biological_target": "T19, FAK (Homo sapiens, UniProt Q05397)", "T19 construct": "Eurofins Pharma Discovery Services UK Limited (Kinase Profiler service)", "assay": "Eurofins Kinase Profiler panel", "type": "biochemical", "settings": "read-out: % inhibition (1μM), DMSO control=100%, lower=stronger"}, "MST1": {"biological_target": "T20, MST1 (Homo sapiens, UniProt Q13043)", "T20 construct": "purchased Eurofins Pharma Discovery Services UK Limited (Kinase Profiler screening platform)", "assay": "Eurofins Kinase Profiler panel", "type": "biochemical", "settings": "read-out: % inhibition (1μM), DMSO control=100%, lower=stronger"}, "GCK": {"biological_target": "T21, GCK (Homo sapiens, UniProt Q12851)", "T21 construct": "purchased Eurofins Pharma Discovery Services UK Limited (Kinase Profiler screening platform)", "T21 sequence (Q12851 whole entry)": "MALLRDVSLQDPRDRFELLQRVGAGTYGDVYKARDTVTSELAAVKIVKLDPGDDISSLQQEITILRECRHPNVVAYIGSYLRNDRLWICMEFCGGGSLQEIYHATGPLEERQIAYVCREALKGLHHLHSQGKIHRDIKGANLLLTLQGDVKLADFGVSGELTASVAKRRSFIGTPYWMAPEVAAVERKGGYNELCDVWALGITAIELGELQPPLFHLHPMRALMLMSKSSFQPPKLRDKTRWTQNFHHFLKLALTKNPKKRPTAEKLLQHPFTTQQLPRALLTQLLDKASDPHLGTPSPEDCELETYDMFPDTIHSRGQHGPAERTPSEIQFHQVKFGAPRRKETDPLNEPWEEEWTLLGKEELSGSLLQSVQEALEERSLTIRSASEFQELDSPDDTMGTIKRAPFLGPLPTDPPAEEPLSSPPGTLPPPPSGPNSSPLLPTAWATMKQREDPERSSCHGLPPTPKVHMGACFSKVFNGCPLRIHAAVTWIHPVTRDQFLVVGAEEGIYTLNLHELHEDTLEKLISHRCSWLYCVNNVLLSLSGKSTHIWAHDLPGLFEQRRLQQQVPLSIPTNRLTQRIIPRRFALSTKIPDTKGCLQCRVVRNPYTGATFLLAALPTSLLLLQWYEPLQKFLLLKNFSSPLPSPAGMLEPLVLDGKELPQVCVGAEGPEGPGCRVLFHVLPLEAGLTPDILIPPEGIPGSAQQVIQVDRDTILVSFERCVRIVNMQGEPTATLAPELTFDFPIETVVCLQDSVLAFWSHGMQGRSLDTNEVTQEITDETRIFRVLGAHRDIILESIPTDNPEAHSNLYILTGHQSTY", "assay": "Eurofins Kinase Profiler panel", "type": "biochemical", "settings": "read-out: % inhibition (1μM), DMSO control=100%, lower=stronger"}, "[1]": {"system": "JAK-STAT pathway in joints of CIA mice", "assay": "JAK/STAT phosphorylation in joint tissue of CIA mice, Western blot", "type": "in vivo, mouse", "settings": "dose-dependent", "description": "Proteins were visualized with enhanced chemiluminescence."}, "[2]": {"system": "serum TNF-α, IL-1β and IL-6 in CIA mice", "assay": "Serum cytokines of CIA mice by ELISA", "type": "in vivo, mouse"}, "[3]": {"system": "panel of 81 representative kinases", "settings": "1 μM"}, "[4]": {"system": "EPO-induced JAK/STAT5 phosphorylation in HEL cells (JAK2)", "assay": "STAT5 phosphorylation induced by EPO in HEL cells, Western blot"}},
  "note": "pIC50: −log10 of the molar value.",
  "data": [
    {"smiles": "C=CC(=O)N[C@@H]1CCCN(c2ncnc3[nH]ccc23)C1", "note": "[RB1]", "values": [
      {"measurement": "inhibition at 1 µM", "setting": "JAK3", "value": 99.1, "unit": "%"},
      {"measurement": "inhibition at 1 µM", "setting": "ERBB4", "value": -3.5, "unit": "%"},
      {"measurement": "activity at 1 µM", "setting": "GRK5", "value": 94, "unit": "%"},
      {"measurement": "activity at 1 µM", "setting": "ACK1", "value": 34, "unit": "%"},
      {"measurement": "activity at 1 µM", "setting": "GSK3β", "value": 114, "unit": "%"},
      {"measurement": "pIC50", "setting": "Aurora-B; estimated", "value": "< 6.10"},
      {"measurement": "activity at 1 µM", "setting": "Aurora-B; read-out: % inhibition (1μM), 1 µM, DMSO control=100%, lower=stronger", "value": 12, "unit": "%"},
      {"measurement": "activity at 1 µM", "setting": "IKKε", "value": 97, "unit": "%"},
      {"measurement": "activity at 1 µM", "setting": "JNK2α2", "value": 109, "unit": "%"},
      {"measurement": "activity at 1 µM", "setting": "Lck", "value": 80, "unit": "%"},
      {"measurement": "activity at 1 µM", "setting": "DYRK1A", "value": 91, "unit": "%"},
      {"measurement": "activity at 1 µM", "setting": "MSK1", "value": 74, "unit": "%"},
      {"measurement": "activity at 1 µM", "setting": "NEK2", "value": 99, "unit": "%"},
      {"measurement": "activity at 1 µM", "setting": "PKBα", "value": 94, "unit": "%"},
      {"measurement": "activity at 1 µM", "setting": "PRK2", "value": 79, "unit": "%"},
      {"measurement": "activity at 1 µM", "setting": "Plk3", "value": 99, "unit": "%"},
      {"measurement": "activity at 1 µM", "setting": "SAPK2a", "value": 100, "unit": "%"},
      {"measurement": "activity at 1 µM", "setting": "STK33", "value": 93, "unit": "%"},
      {"measurement": "activity at 1 µM", "setting": "MKK6", "value": 69, "unit": "%"},
      {"measurement": "activity at 1 µM", "setting": "FAK", "value": 72, "unit": "%"},
      {"measurement": "activity at 1 µM", "setting": "MST1", "value": 83, "unit": "%"},
      {"measurement": "activity at 1 µM", "setting": "GCK", "value": 80, "unit": "%"},
      {"measurement": "phosphorylation status of JAKs and STATs in joint tissue", "setting": "[1]", "value": "hypo-phosphorylation of JAK3, STAT1 and STAT3"},
      {"measurement": "serum TNF-α, IL-1β and IL-6 levels", "setting": "[2]", "value": "significantly reduced in a dose-dependent manner"},
      {"measurement": "selectivity score S(1)", "setting": "[3]; kinases with ctrl% < 1% / kinases tested", "value": 0.012},
      {"measurement": "selectivity score S(10)", "setting": "[3]; kinases with ctrl% < 10% / kinases tested", "value": 0.012},
      {"measurement": "selectivity score S(35)", "setting": "[3]; kinases with ctrl% < 35% / kinases tested", "value": 0.086},
      {"measurement": "Selectivity JAK2/JAK3", "setting": "[4]; EPO, pSTAT5", "value": "> 1000"},
      {"measurement": "pIC50", "setting": "[4]; Homo sapiens", "value": "< 4.30"}
    ]}
  ]
}
